The test system of assay [1] is Culex pipiens pallens. In words: Knockdown spray test on adult Culex pipiens pallens (Test Example 4). Type of assay: in vivo. The following applies: topical, 0.25 h, active ingredient 0.1% w/v, 0.5 ml sprayed, within 15 minutes, read-out: knockdown rate of the test insects within 15 minutes. Here is the method: Ten adult Culex pipiens pallens were released in a polyethylene cup (bottom diameter: 10.6 cm), and the cup was covered with a 16-mesh nylon gauze. The polyethylene cup was placed on the bottom of a test chamber (bottom: 46 cm×46 cm, height: 70 cm). From a height of 30 cm above the upper surface of the polyethylene cup, 0.5 ml of the test drug solution was sprayed using a spray gun (a spraying pressure of 0.4 kg/cm^2). Immediately after spraying, the cup was taken out from the test chamber, and after 2 minutes, 5 minutes and 15 minutes, the number of knocked-down insects was counted to obtain a knockdown rate. The knockdown rate was calculated by the following equation.
(§1) Knockdown Rate (%)=(Number of Knocked-down Insects/Number of Tested Insects)×100

For assay [2], the system named is Blattella germanica. In words: Knockdown spray test on Blattella germanica, 0.1% w/v oil formulation (Test Example 2). As to conditions: topical, 0.25 h, active ingredient 0.1% w/v, 1.5 ml sprayed, within 15 minutes, read-out: knockdown rate of the test insects within 15 minutes. Type of assay: in vivo. As for the experimental part:
Ten Blattella germanica (5 males and 5 females) were released in a test container (8.75 cm in diameter, 7.5 cm in height, and the bottom made of 16 mesh metallic wire) with the inner wall on which butter was applied, and the container was placed on the bottom of a test chamber (bottom: 46 cm×46 cm, height: 70 cm). From a height of 60 cm above the upper surface of the container, 1.5 ml of the test drug solution was sprayed using a spray gun (a spraying pressure of 0.42 kg/cm^2). Thirty seconds after spraying, the container was taken out from the test chamber, and after 2 minutes, 5 minutes and 15 minutes, the number of knocked-down insects was counted to obtain a knockdown rate. The knockdown rate was calculated by the following equation.
as §1

As to `O=C(NCC1CCOC1)c1cc(COCc2cccc(F)c2)on1` (centres unmarked) [(74)], the pest or weed control at 0.1 % strength in assay [1] and in assay [2] was at least 80% in each case.
As for `O=C(NCC1CCOCC1)c1cc(COCc2cccc(F)c2)on1` [(75), N-(tetrahydropyran-4-ylmethyl)-5-(3-fluorobenzyloxymethyl)isoxazole-3-carboxamide], the pest or weed control at 0.1 % strength in assay [1] and in assay [2] was at least 80% in each case.
As for `O=C(NCC1CCOC1)c1cc(COCc2cccc(SC(F)(F)F)c2)on1` (centres unmarked) [(80), N-(tetrahydrofuran-3-ylmethyl)-5-(3-trifluoromethylthiobenzyloxymethyl)isoxazole-3-carboxamide], the pest or weed control at 0.1 % strength in assay [1] and in assay [2] was at least 80% throughout.
In the case of `COc1cccc(COCc2cc(C(=O)NCC3CCOCC3)no2)c1` [(85), N-(tetrahydropyran-4-ylmethyl)-5-(3-methoxybenzyloxymethyl) isoxazole-3-carboxamide], the pest or weed control at 0.1 % strength in assay [1] and in assay [2] was at least 80% each time.
Take `O=Cc1c(C(=O)NCC2CCOC2)noc1COCc1ccccc1` (centres unmarked) [(165), N-(tetrahydrofuran-3-ylmethyl)-(5-benzyloxymethyl-4-formyl) isoxazole-3-carboxamide]: the pest or weed control at 0.1 % strength in assay [2] was at least 80%.
Turning to `O=C(NCC1CCOC1)c1cc(COCc2ccc3c(c2)OC(F)(F)O3)on1` (centres unmarked) [(236), N-(tetrahydrofuran-3-ylmethyl)-5-[5-(2,2-difluoro-1,3-benzodioxolanyl)methoxymethyl]isoxazole-3-carboxamide], in assay [1], the pest or weed control at 0.1 % strength is at least 80%.
As to `O=C(NCC1CCOCC1)c1cc(COCc2ccc3c(c2)OC(F)(F)O3)on1` [(237), N-(tetrahydropyran-4-ylmethyl)-5-[5-(2,2-difluoro-1,3-benzodioxolanyl)methoxymethyl]isoxazole-3-carboxamide], the pest or weed control at 0.1 % strength in assay [1] is at least 80%.
With `CC1(CNC(=O)c2cc(COCc3ccc4c(c3)OC(F)(F)O4)on2)COC1` [(238), N-(3-methyloxetan-3-ylmethyl)-5-[5-(2,2-difluoro-1,3-benzodioxolanyl)methoxymethyl]isoxazole-3-carboxamide], the pest or weed control at 0.1 % strength in assay [1] was at least 80%.
In the case of `O=C(NCC1CCOC1)c1cc(COCc2ccc(-c3ccccc3)s2)on1` (centres unmarked) [(241), N-(tetrahydrofuran-3-ylmethyl)-5-(5-phenyl-2-thienylmethoxymethyl)isoxazole-3-carboxamide], the pest or weed control at 0.1 % strength in assay [1] was at least 80%.
As to `O=C(NCC1CCOC1)c1cc(CCCc2ccccc2F)on1` (centres unmarked) [(245), N-(tetrahydrofuran-3-ylmethyl)-5-[3-(2-fluorophenyl)propyl]isoxazole-3-carboxamide], the pest or weed control at 0.1 % strength in assay [1] was at least 80%.
For `COc1ccc2cc(CCCc3cc(C(=O)NCC4CCOC4)no3)ccc2c1` (centres unmarked) [(247), N-(tetrahydrofuran-3-ylmethyl)-5-[3-(6-methoxy-2-naphthyl)propyl]isoxazole-3-carboxamide], the pest or weed control at 0.1 % strength in assay [1] was at least 80%.
Turning to `O=C(NCC1CCOC1)c1cc(CCCBr)on1` (centres unmarked) [(248), N-(tetrahydrofuran-3-ylmethyl)-5-(3-bromopropyl)isoxazole-3-carboxamide], in assay [1], the pest or weed control at 0.1 % strength is at least 80%.
For `C#Cc1c(C(=O)NCC2CCOC2)noc1COCc1ccccc1F` (centres unmarked) [(249), N-(tetrahydrofuran-3-ylmethyl)-5-(2-fluorobenzyloxymethyl)-4-ethynylisoxazole-3-carboxamide], in assay [1], the pest or weed control at 0.1 % strength was at least 80%.
Take `C#Cc1c(C(=O)NCC2CCOC2)noc1COCc1ccc2ccccc2c1` (centres unmarked) [(250), N-(tetrahydrofuran-3-ylmethyl)-5-(2-naphthylmethoxymethyl)-4-ethynylisoxazole-3-carboxamide]: the pest or weed control at 0.1 % strength in assay [1] was at least 80%.
The same measure, in the same setting: then `O=C(NCC1CCOC1)c1cc(CCCc2cccc(F)c2)on1` (centres unmarked) [(251), N-(tetrahydrofuran-3-ylmethyl)-5-[3-(3-fluorophenyl)propyl]isoxazole-3-carboxamide], with at least 80%; and `O=C(NCC1CCOC1)c1cc(CSCc2ccccc2)on1` (centres unmarked) [(254), N-(tetrahydrofuran-3-ylmethyl)-5-benzylthiomethylisoxazole-3-carboxamide], with at least 80%.
In the case of `O=C(NCC1CCOC1)c1noc(COCc2ccc3ccccc3c2)c1Br` (centres unmarked) [(256), N-(tetrahydrofuran-3-ylmethyl)-5-(2-naphthylmethoxymethyl)-4-bromoisoxazole-3-carboxamide], the pest or weed control at 0.1 % strength in assay [1] was at least 80%.
Turning to `O=C(NCC1CCOC1)c1cc(COCc2cc(F)ccc2F)on1` (centres unmarked) [(259), N-(tetrahydrofuran-3-ylmethyl)-5-(2,5-difluorobenzyloxymethyl)isoxazole-3-carboxamide], in assay [1], the pest or weed control at 0.1 % strength was at least 80%.
Same read-out and setting: then `O=C(NCC1CCOC1)c1cc(COCc2cc(Br)cc(Br)c2)on1` (centres unmarked) [(262), N-(tetrahydrofuran-3-ylmethyl)-5-(3,5-dibromobenzyloxymethyl)isoxazole-3-carboxamide], with at least 80%; and `O=C(NCC1CCOC1)c1cc(COCc2c(F)c(F)cc(F)c2F)on1` (centres unmarked) [(269), N-(tetrahydrofuran-3-ylmethyl)-5-(2,3,5,6-tetrafluorobenzyloxymethyl)isoxazole-3-carboxamide], with at least 80%.
With `Cc1c(F)c(F)c(COCc2cc(C(=O)NCC3CCOC3)no2)c(F)c1F` (centres unmarked) [(273), N-(tetrahydrofuran-3-ylmethyl)-5-(4-methyl-2,3,5,6-tetrafluorobenzyloxymethyl)isoxazole-3-carboxamide], the pest or weed control at 0.1 % strength in assay [1] was at least 80%.
Same read-out and setting: next, `O=C(NCC1CCOC1)c1noc(COCc2ccc3ccccc3c2)c1I` (centres unmarked) [(295), N-(tetrahydrofuran-3-ylmethyl)-5-(2-naphthylmethoxymethyl)-4-iodoisoxazole-3-carboxamide]: at least 80%; `O=C(NCC1CCOC1)c1noc(COCc2ccccc2F)c1Br` (centres unmarked) [(296), N-(tetrahydrofuran-3-ylmethyl)-5-(2-fluorobenzyloxymethyl)-4-bromoisoxazole-3-carboxamide]: at least 80%; `O=C(NCC1CCOC1)c1noc(COCc2ccccc2F)c1I` (centres unmarked) [(297), N-(tetrahydrofuran-3-ylmethyl)-5-(2-fluorobenzyloxymethyl)-4-iodoisoxazole-3-carboxamide]: at least 80%.
`O=C(NCC1CCOC1)c1cc(Cc2cc(Cl)cc(Cl)c2)on1` (centres unmarked) [(307), N-(tetrahydrofuran-3-ylmethyl)-5-(3,5-dichlorobenzyl)isoxazole-3-carboxamide]: in assay [1], the pest or weed control at 0.1 % strength is at least 80%.
In the case of `O=C(NCC1CCOC1)c1cc(Cc2ccc(C(F)(F)F)cc2)on1` (centres unmarked) [(316), N-(tetrahydrofuran-3-ylmethyl)-5-(4-trifluoromethylbenzyl)isoxazole-3-carboxamide], the pest or weed control at 0.1 % strength in assay [1] is at least 80%.
As to `O=C(NCC1CCOC1)c1cc(Cc2ccccc2F)on1` (centres unmarked) [(320), N-(tetrahydrofuran-3-ylmethyl)-5-(2-fluorobenzyl)isoxazole-3-carboxamide], in assay [1], the pest or weed control at 0.1 % strength was at least 80%.
The same measure, in the same setting: next, `O=C(NCC1CCOC1)c1cc(Cc2ccccc2Cl)on1` (centres unmarked) [(323), N-(tetrahydrofuran-3-ylmethyl)-5-(2-chlorobenzyl)isoxazole-3-carboxamide]: at least 80%.

For the origin of these results see patent publication US20150344466A1 (SUMITOMO CHEMICAL COMPANY, LIMITED, priority 2013, published 2015).
